Reference: patent US6921824B1, “Ruthenium dimeric complexes suitable as antimetastatic and antineoplastic agents” (priority 1999, dated 2005)

Test system: MCa mammary carcinoma
Assay: Pre-surgical treatment: prevention of lung metastases formation in mice with MCa mammary carcinoma
Type: in vivo
Conditions: for Lung metastases Number % T/C / Lung metastases weight % T/C: Treated/Control; for Lung metastases Number mean / Lung metastases weight (mg) mean: evaluated day 29; for Body weight % var: variation day 11 to day 16 vs untreated controls; for Selectivity of action on lung metastases versus primary tumour: MCa mammary carcinoma model of the CBA mouse; for Number of lung metastases (in words) / Weight of lung metastases (in words): at two dose levels, pre-surgical treatment
Method: In vivo tests of the activity of the compounds according to the present invention in mice affected from MCa mammary carcinoma: prevention activity in the formation of lung metastases.
Five groups of CBA kin female mice weighing 23±3 g were inoculated with […] viable cells (as determined by the Trypan blue exclusion) of MCa mammary carcinoma in 0.05 ml Dulbecco's pH 7.4 buffered calcium and magnesium-free solution (PBS), by intramuscular injection with a sterile insulin syringe. The tumour cells were derived from donors of the same strain, injected with the same tumour cells, following the same procedures 2 weeks before. The suspension of tumour cells was prepared in PBS by mechanically mincing the tumour mass obtained from donor mice, and further removing tissue debris and cells by, respectively, filtration through a double layer of sterile gauze and centrifugation at 250× g for 10 minutes. Kin animals were obtained from a colony from Chester Beatthy from London (UK) which were grown in the University of Trieste animal house accordingly to the procedures accepted for the rearing of kin animals. The MCa mammary carcinoma tumour cell-line derived from a stock, stored in liquid nitrogen, of tumour cells obtained originally from Rudjer Boskovic Institute of Zagreb (HR).
From day 11 to day 16, after tumour cells implantation, five mice groups were treated intraperitoneally with a sterile insulin syringe, respectively with: • Group 1 Control (10 animals): 10 ml/kg of body weight/day of sterile and pyrogen-free physiological solution; • Group 2 (two subgroups a,b of five animals each): 7.5 (a), 15 (b) mg/kg of body weight/day of the compound prepared as described in Example 4 in sterile and pyrogen-free physiological solution; • Group 3 (2 subgroups c,d of five animals each): 15 (c), 30 (d) mg/kg of body weight/day of the compound prepared as described in Example 7 in sterile and pyrogen-free physiological solution; • Group 4 (2 subgroups e,f of 5 animals each): 25 (e), 50 (f) mg/kg of body weight/day of the compound prepared as described in Example 8 in sterile and pyrogen-free physiological solution; • Group 5 (2 subgroups g,h of 5 animals each): 12.5 (g), 25 (h) mg/kg of body weight/day of the compound prepared as described in Example 10 in sterile and pyrogen-free physiological solution.
The administered dosages were either approximated to LD0.1, or to half of it or to a quarter of it, as calculated separately in animals of the same strain and gender and with the same body weight, for an intraperitoneal treatment lasting 6 consecutive days, according to the method of Lichtfield and Wilcoxon, and with an observation time of 10 days since the last dose.
On day 17 since tumour cells implantation, the primary tumour was surgically removed, after general anesthesia of the animals by intraperitoneal injection of 125 mg/kg of Ketamine.
On day 29 since tumour cells implantation, the mice were sacrificed by cervical dislocation for the evaluation of lung metastases. The lungs were abducted from the animals immediately after sacrifice, divided in single lobes which then examined immediately with a low-magnification microscope equipped with a graduated ocular-grid for the measurement of the size of the metastases in which the a and b orthogonal axes (a≦b) were identified. Metastases were classified by size and the metastatic tumour weight for each animal was calculated as the sum of each single metastasis weight, each of them considered as a rotation solid developed around the above mentioned axes and calculated according to the formula (π/6)·a^2·b. The experimental data obtained were then processed by appropriate statistical tests. […]

[1] = 7.5 mg/kg/die i.p. day 11-16, pre-surgical
[2] = 15 mg/kg/die i.p. day 11-16, pre-surgical
[3] = 30 mg/kg/die i.p. day 11-16, pre-surgical
[4] = 12.5 mg/kg/die i.p. day 11-16, pre-surgical
[5] = 25 mg/kg/die i.p. day 11-16, pre-surgical
[6] = 50 mg/kg/die i.p. day 11-16, pre-surgical

Compound | Lung metastases Number % T/C [2] [%] | Lung metastases weight % T/C [2] [%] | Lung metastases Number mean [2] | Lung metastases weight (mg) mean [2] [mg] | Body weight % var (15 mg/kg/die i.p. day 11-16) [%] | Selectivity of action on lung metastases versus primary tumour | Number of lung metastases (in words) | Weight of lung metastases (in words) | Lung metastases Number % T/C [5] [%] | Lung metastases weight % T/C [5] [%] | Lung metastases Number mean [5] | Lung metastases weight (mg) mean [5] [mg] | Body weight % var (25 mg/kg/die i.p. day 11-16) [%] | also measured
C[SH](C)(=O)[Ru-]([Cl])([Cl])([Cl])([Cl])[n+]1cc[n+]([Ru-]([Cl])([Cl])([Cl])([Cl])[SH](C)(C)=O)cc1.[Na+].[Na+] [Example 4, [Na]2[trans-RuCl4(Me2SO)]2(μ-pyz)] | 4 | 0 | 2.0 | 0.2 | −3.3 | act selectively on lung metastases | marked reduction | even more marked reduction |  |  |  |  |  | Lung metastases Number % T/C [1]: 27%; Lung metastases weight % T/C [1]: 10%; Lung metastases Number mean [1]: 14.0; Lung metastases weight (mg) mean [1]: 8 mg; Body weight % var (7.5 mg/kg/die i.p. day 11-16): −4.6%
C[SH](C)(=O)[Ru-]([Cl])([Cl])([Cl])([Cl])[n+]1ccc[n+]([Ru-]([Cl])([Cl])([Cl])([Cl])[SH](C)(C)=O)c1.[Na+].[Na+] [Example 7, [Na]2[trans-RuCl4(Me2SO)]2(μ-pym)] | 10 | 2 | 5.0 | 1.7 | −1.4 | act selectively on lung metastases | marked reduction | even more marked reduction |  |  |  |  |  | Lung metastases Number % T/C [3]: 6%; Lung metastases weight % T/C [3]: 1%; Lung metastases Number mean [3]: 3.0; Lung metastases weight (mg) mean [3]: 0.8 mg; Body weight % var (30 mg/kg/die i.p. day 11-16): −2.7%
C[SH](C)(=O)[Ru-]([Cl])([Cl])([Cl])([Cl])[n+]1ccc(CCc2cc[n+]([Ru-]([Cl])([Cl])([Cl])([Cl])[SH](C)(C)=O)cc2)cc1.[Na+].[Na+] [Example 10, [Na]2[trans-RuCl4(Me2SO)]2(μ-etbipy)] |  |  |  |  |  | act selectively on lung metastases | marked reduction | even more marked reduction | 25 | 1 | 13.0 | 1.2 | −1.1 | Lung metastases Number % T/C [4]: 15%; Lung metastases weight % T/C [4]: 6%; Lung metastases Number mean [4]: 8.0; Lung metastases weight (mg) mean [4]: 4.6 mg; Body weight % var (12.5 mg/kg/die i.p. day 11-16): −2.8%
[Na]2[trans-RuCl4(Me2SO)]2(μ-bipy) [Example 8] |  |  |  |  |  | act selectively on lung metastases |  |  | 213 | 144 | 111 | 119 | −3.4 | Lung metastases Number % T/C [6]: 15%; Lung metastases weight % T/C [6]: 4%; Lung metastases Number mean [6]: 8.0; Lung metastases weight (mg) mean [6]: 3.1 mg; Body weight % var (50 mg/kg/die i.p. day 11-16): −1.7%
